Test results published in patent US11655231B2, “Etoricoxib solvates and preparation method thereof” (Tianjin University, priority 2020, dated 2023).
Converted amounts (≈) assume the structure as drawn. Where two headings read alike, the source gives them in different places.

Experiments:
[1] = Crystal size and size distribution; type: physicochemical
Procedure: (§1) The 1,2-propanediol and DMSO solvates of etoricoxib obtained in the present disclosure are rod-like and bulk crystals, respectively, as shown in FIG. 10 and FIG. 11. The etoricoxib crystal form V in the prior art has a volume-average size of 16 μm and a repose angle of 44°; and the etoricoxib hemihydrate has a volume-average size of 19 μm and a repose angle of 48°. […] Therefore, the 1,2-propanediol and DMSO solvates of etoricoxib obtained in the present disclosure are perfect crystals with smooth surfaces, which are not easy to agglomerate and have prominent flowability.

[2] = Thermal and moisture stability on storage at room/ambient temperature; type: physicochemical; conditions: for moisture stability (in words): ambient temperature, transformation into a hydrate; for thermal stability (in words): stored at room temperature
Procedure: The 1,2-propanediol and DMSO solvates of etoricoxib obtained in the present disclosure have a relatively high desolvation temperature. The 1,2-propanediol and the DMSO have boiling points of […] and 189° C., respectively. […] Moreover, the host-guest intermolecular interaction energies in the crystal structure of etoricoxib 1,2-propanediol and DMSO solvates are −37.22 kJ/mol and −43.37 kJ/mol respectively, which are much higher than that (−30.53 kJ/mol) in hemihydrate crystal structure. It is difficult for water molecules to enter a unit cell of the 1,2-propanediol and DMSO solvates to replace the 1,2-propanediol and DMSO molecules at an ambient temperature. […] As a result, the 1,2-propanediol and DMSO solvates of etoricoxib obtained in the present disclosure both have prominent thermal stability and moisture stability.

[3] = Solubility in aqueous solution; type: physicochemical; conditions: 25° C. aqueous solution
Description: Therefore, the 1,2-propanediol and DMSO solvates of etoricoxib obtained in the present disclosure both effectively improve the solubility of etoricoxib in an aqueous solution.

[4] = Onset temperature of desolvation in TG test (thermogravimetric analysis); type: physicochemical; conditions: TGA, heating rate 10° C./min, 25° C. to 250° C., nitrogen
[5] = Repose angle (particle flowability); type: physicochemical
Procedure: as §1

[6] = prior-art hydrates, cited from earlier work
[7] = listed as DMSO solvate of etoricoxib
[8] = listed as 1,2-propanediol solvate of etoricoxib
[9] = listed as etoricoxib hemihydrate

SMILES: Cc1ccc(-c2ncc(Cl)cc2-c2ccc(S(C)(=O)=O)cc2)cn1 [DMSO solvate]
- volume-average size [1]: 120 μm
- variation coefficient of size distribution [1, 7]: 19.7%
- moisture stability (in words) [2]: prominent moisture stability
- thermal stability (in words) [2]: excellent thermal stability
- solubility in aqueous solution [3, 7]: 1465 µg/mL
- Onset temperature of desolvation in TG test [4]: 66 ± 1 °C
- Onset temperature of desolvation in TG test [4, 7]: 66 °C

SMILES: Cc1ccc(-c2ncc(Cl)cc2-c2ccc(S(C)(=O)=O)cc2)cn1 [etoricoxib crystal form V, 5-chloro-6′-methyl-3-[4-(methylsulfonyl)phenyl]-2,3′-bipyridine, reference compound]
- variation coefficient of size distribution [1]: 57.2%
- volume-average size [1]: 16 μm
- repose angle [5]: 44 °
- solubility in aqueous solution [3]: 307.9 µg/mL (≈ 858 µM)

SMILES: Cc1ccc(-c2ncc(Cl)cc2-c2ccc(S(C)(=O)=O)cc2)cn1 [Methanol solvate]
- Onset temperature of desolvation in TG test [4]: 27 ± 1 °C
- Onset temperature of desolvation in TG test ([4]; listed as methanol solvate of etoricoxib): 27 °C

SMILES: Cc1ccc(-c2ncc(Cl)cc2-c2ccc(S(C)(=O)=O)cc2)cn1 [EG solvate]
- Onset temperature of desolvation in TG test [4]: 96 ± 1 °C
- Onset temperature of desolvation in TG test ([4]; listed as EG solvate of etoricoxib): 96 °C

SMILES: Cc1ccc(-c2ncc(Cl)cc2-c2ccc(S(C)(=O)=O)cc2)cn1 [NMP solvate]
- Onset temperature of desolvation in TG test [4]: 79 ± 1 °C
- Onset temperature of desolvation in TG test ([4]; listed as NMP solvate of etoricoxib): 79 °C

SMILES: Cc1ccc(-c2ncc(Cl)cc2-c2ccc(S(C)(=O)=O)cc2)cn1 [Formamide solvate]
- Onset temperature of desolvation in TG test ([4]; listed as formamide solvate of etoricoxib): 90 °C

SMILES: Cc1ccc(-c2ncc(Cl)cc2-c2ccc(S(C)(=O)=O)cc2)cn1 [1,2-propanediol solvate]
- primary crystal size [1]: 100 μm
- variation coefficient of size distribution [1, 8]: 23.6%
- moisture stability (in words) [2]: prominent moisture stability
- thermal stability (in words) [2]: excellent thermal stability
- solubility in aqueous solution [3, 8]: 527 µg/mL
- Onset temperature of desolvation in TG test [4]: 94 ± 1 °C
- Onset temperature of desolvation in TG test [4, 8]: 94 °C

SMILES: Cc1ccc(-c2ncc(Cl)cc2-c2ccc(S(C)(=O)=O)cc2)cn1 [Hemihydrate, 5-chloro-6′-methyl-3-[4-(methylsulfonyl)phenyl]-2,3′-bipyridine]
- variation coefficient of size distribution [1]: 53.6%
- volume-average size [1, 9]: 19 μm
- onset temperature of dehydration ([6]; listed as hemihydrate): lower than 56 °C
- repose angle [5, 9]: 48 °

SMILES: Cc1ccc(-c2ncc(Cl)cc2-c2ccc(S(C)(=O)=O)cc2)cn1 [Sesquihydrate, 5-chloro-6′-methyl-3-[4-(methylsulfonyl)phenyl]-2,3′-bipyridine]
- onset temperature of dehydration ([6]; listed as sesquihydrate): lower than 23 °C
